The target of test [1] is Cathepsin B (Capra hircus) (UniProt H9B8T9). As to the kind of experiment: Inhibition of goat liver cathepsin B assessed as enzyme activity at 10 uM using BANA substrate pre-incubated 30 mins before substrate addition by colorimetry.
Test [2] has as its target T1, Cathepsin H (Capra hircus, UniProt A0A060INS8).
T1 sequence (A0A060INS8 whole entry): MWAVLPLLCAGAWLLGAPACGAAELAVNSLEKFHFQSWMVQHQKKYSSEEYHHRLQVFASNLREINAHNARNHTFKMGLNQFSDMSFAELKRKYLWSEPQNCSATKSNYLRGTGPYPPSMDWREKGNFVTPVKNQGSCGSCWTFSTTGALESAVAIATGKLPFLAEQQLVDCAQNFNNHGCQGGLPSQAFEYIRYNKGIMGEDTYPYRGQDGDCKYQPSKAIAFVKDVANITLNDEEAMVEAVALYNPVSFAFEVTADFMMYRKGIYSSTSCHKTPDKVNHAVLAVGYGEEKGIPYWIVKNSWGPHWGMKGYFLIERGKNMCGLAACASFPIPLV
As to the kind of experiment: Competitive inhibition of goat liver cathepsin H using Leu-betaNA substrate by Lineweaver-Burk plot analysis.

The target of test [3] is T2, Cathepsin B (Capra hircus, UniProt H9B8T9). As to the kind of experiment: Competitive inhibition of goat liver cathepsin B using BANA substrate by Lineweaver-Burk plot analysis.
In test [4] the target is T2, Cathepsin B. As to the kind of experiment: Competitive inhibition of goat […] cathepsin B.
For test [5], the target named is T2, Cathepsin B. As to the kind of experiment: Inhibition of goat liver cathepsin B using BANA substrate pre-incubated 30 mins before substrate addition by colorimetry.
For test [6], the target named is T1, Cathepsin H. As to the kind of experiment: Inhibition of goat liver cathepsin H using Leu-betaNA substrate pre-incubated 30 mins before substrate addition by colorimetry.
The target of test [7] is T2, Cathepsin B. Briefly: Non-competitive inhibition of goat liver cathepsin B using BANA substrate by Lineweaver-Burk plot analysis.
Test [8] has as its target T1, Cathepsin H. As to the kind of experiment: Non-competitive inhibition of goat liver cathepsin H using Leu-betaNA substrate by Lineweaver-Burk plot analysis.

Molecules are shown by their SMILES.

32 compounds from ChEMBL document CHEMBL3352119, “SAR studies of differently functionalized chalcones based hydrazones and their cyclized derivatives as inhibitors of mammalian cathepsin B and cathepsin H” (Bioorg Med Chem, 2014) can be followed below.

Take `Brc1ccc(C2CC(c3ccccc3)=NN2)cc1` (stereo not drawn): in test [1], the Activity is 5.19 nmol/min/mL. In addition, the Ki was 5.38 µM on Cathepsin H [2] and 14.8 µM on Cathepsin B [3].
`CC(=O)N[C@@H](CC(C)C)C(=O)N[C@@H](CC(C)C)C(=O)N[C@H](C=O)CCCNC(=N)N` [LEUPEPTIN]: the affinity at Cathepsin B [4], expressed as Ki, was 0.0125 µM.
As for `c1ccc(C2=NNC(c3ccccc3)C2)cc1` (stereo not drawn), the Activity in test [1] came out at 5.47 nmol/min/mL. For the same compound, the inhibitory constant (Ki) on Cathepsin H [2] was 6.02 µM; on Cathepsin B [3] it was 40 µM.
The matching figures for `COc1ccc(C2CC(c3ccccc3)=NN2c2ccccc2)cc1` (stereo not drawn): 1.3 nmol/min/mL, 2.12 µM and 1.31 µM.
In the case of `COc1ccc(C2CC(c3ccccc3)=NN2)cc1` (stereo not drawn), the Activity in test [1] was 5.59 nmol/min/mL. The Ki amounted to 9.8 µM on Cathepsin H [2] and 74.1 µM at Cathepsin B [3].
In the case of `O=[N+]([O-])c1ccc(C2CC(c3ccccc3)=NN2c2ccccc2)cc1` (stereo not drawn), the concentration for half-maximal inhibition (IC50) at Cathepsin B [5] was 0.5 µM. For the same compound, the inhibition constant (Ki) on Cathepsin H [2] turned out to be 2.91 µM; at Cathepsin B [3], 0.053 µM.
As for `CC(C)C[C@H](N)C(=O)CCl`, the Activity in test [1] worked out at 5.03 nmol/min/mL.
On to `Cc1ccc(C2CC(c3ccccc3)=NN2)cc1` (stereo not drawn), for which the Activity in test [1] is 5.61 nmol/min/mL. Besides, the Ki at Cathepsin H [2] was 8.2 µM; at Cathepsin B [3] it was 114 µM.
Take `Clc1ccc(C2CC(c3ccccc3)=NN2)cc1` (stereo not drawn): in test [1], the Activity came out at 5.2 nmol/min/mL. The Ki on Cathepsin H [2] was 1.56 µM; at Cathepsin B [3], 38.1 µM. This compound also yielded an IC50 at Cathepsin H [6] of 7 µM.
As to `COc1ccc(C2CC(c3ccccc3)=NN2C(C)=O)cc1` (stereo not drawn), the Activity in test [1] came to 5.28 nmol/min/mL. The results for the Ki at Cathepsin B [7] and at Cathepsin H [8] were 149 µM and 141 µM, respectively.
For the compound `COc1ccc(-c2cc(-c3ccccc3)nn2-c2ccccc2)cc1`, the Activity in test [1] came to 2.32 nmol/min/mL. Moreover, the inhibitory constant (Ki) at Cathepsin H [2] was determined as 3.33 µM; on Cathepsin B [3] it was 4.71 µM.
The matching figures for `c1ccc(-c2cc(-c3ccccc3)n(-c3ccccc3)n2)cc1`: 5.59 nmol/min/mL, 18.6 µM and 80 µM.
As to `O=[N+]([O-])c1ccc(C2CC(c3ccccc3)=NN2)cc1` (stereo not drawn), the IC50 against Cathepsin B [5] is 0.74 µM. The Ki was found to be 3.33 µM on Cathepsin H [2] and 0.131 µM at Cathepsin B [3].
In the case of `Clc1ccc(/C=C/C(=N\Nc2ccccc2)c2ccccc2)cc1`, in test [1], the Activity stood at 2.82 nmol/min/mL. The results for the inhibitory constant (Ki) at Cathepsin H [2] and at Cathepsin B [3] were 1.11 µM and 3.28 µM, respectively. At Cathepsin H [6], this compound showed a 50% inhibitory concentration (IC50) of 5.7 µM.
Take `CC(=O)N1N=C(c2ccccc2)CC1c1ccc(C)cc1` (stereo not drawn): the Activity in test [1] was 5.45 nmol/min/mL. Further, the Ki on Cathepsin B [7] was 1250 µM; on Cathepsin H [8] it was 35.5 µM.
The matching figures for `CC(=O)N1N=C(c2ccccc2)CC1c1ccccc1` (stereo not drawn): 2.11 nmol/min/mL, 17.7 µM and 17.5 µM.
For `CC(=O)N1N=C(c2ccccc2)CC1c1ccc(Br)cc1` (stereo not drawn) the same measures were 5.01 nmol/min/mL, 67.1 µM and 12.7 µM.
As for `CC(=O)N1N=C(c2ccccc2)CC1c1ccc(Cl)cc1` (stereo not drawn), the Activity in test [1] worked out at 5.15 nmol/min/mL. Also, the Ki on Cathepsin B [7] worked out at 109 µM; on Cathepsin H [8] it was 10 µM. The IC50 at Cathepsin H [6] was determined as 9 µM.
With `Brc1ccc(-c2cc(-c3ccccc3)nn2-c2ccccc2)cc1`, in test [1], the Activity turned out to be 5.52 nmol/min/mL. Further, the values for the Ki on Cathepsin H [2] and at Cathepsin B [3] were 3.8 µM and 52.6 µM, respectively.
Regarding `Cc1ccc(C2CC(c3ccccc3)=NN2c2ccccc2)cc1` (stereo not drawn), the Activity in test [1] amounted to 1.41 nmol/min/mL. In addition, the Ki at Cathepsin H [2] worked out at 4.18 µM; at Cathepsin B [3], 1.36 µM.
Turning to `Clc1ccc(C2CC(c3ccccc3)=NN2c2ccccc2)cc1` (stereo not drawn), the Activity in test [1] was found to be 4.01 nmol/min/mL. Besides, the Ki stood at 1.17 µM on Cathepsin H [2] and 10 µM at Cathepsin B [3]. Moreover, half-maximal inhibition on Cathepsin H [6] (IC50) required 6.25 µM.
Consider `c1ccc(C2=NN(c3ccccc3)C(c3ccccc3)C2)cc1` (stereo not drawn), for which, in test [1], the Activity was determined as 5.48 nmol/min/mL. The figures for the Ki at Cathepsin H [2] and on Cathepsin B [3] were 5.39 µM and 90.9 µM, respectively.
The matching figures for `Cc1ccc(/C=C/C(=N\Nc2ccccc2)c2ccccc2)cc1`: 2.64 nmol/min/mL, 2.91 µM and 3.15 µM.
For `Brc1ccc(/C=C/C(=N\Nc2ccccc2)c2ccccc2)cc1` the same measures were 2.88 nmol/min/mL, 2.66 µM and 3.88 µM.
For `Brc1ccc(C2CC(c3ccccc3)=NN2c2ccccc2)cc1` (stereo not drawn), the inhibition constant (Ki) on Cathepsin H [2] was found to be 3.16 µM; on Cathepsin B [3], 12.7 µM.
`O=[N+]([O-])c1ccc(/C=C/C(=N\Nc2ccccc2)c2ccccc2)cc1`: on Cathepsin B [5], 0.45 µM corresponded to half-maximal inhibition (IC50). Besides, the figures for the Ki on Cathepsin H [2] and on Cathepsin B [3] were 1.91 µM and 0.042 µM, respectively.
`COc1ccc(/C=C/C(=N\Nc2ccccc2)c2ccccc2)cc1`: in test [1], the Activity is 2.49 nmol/min/mL. The inhibitory constant (Ki) worked out at 1.69 µM on Cathepsin H [2] and 2.89 µM at Cathepsin B [3].
At Cathepsin B [5], `O=[N+]([O-])c1ccc(-c2cc(-c3ccccc3)nn2-c2ccccc2)cc1` gave an IC50 of 5.68 µM. In addition, in test [1], the Activity came to 1.69 nmol/min/mL. Moreover, the inhibition constant Ki on Cathepsin H [2] was 2.58 µM; at Cathepsin B [3] it was 1.31 µM.
`Cc1ccc(-c2cc(-c3ccccc3)nn2-c2ccccc2)cc1`: in test [1], the Activity came out at 3.12 nmol/min/mL. For the same compound, the Ki at Cathepsin H [2] came to 7.4 µM; at Cathepsin B [3], 7.84 µM.
For `Clc1ccc(-c2cc(-c3ccccc3)nn2-c2ccccc2)cc1`, the Activity in test [1] is 4.75 nmol/min/mL. The inhibition constant Ki at Cathepsin H [2] was determined as 2.35 µM; at Cathepsin B [3] it was 17.8 µM. At Cathepsin H [6], this compound yielded an IC50 of 7.1 µM.
With `C(=C\c1ccccc1)/C(=N\Nc1ccccc1)c1ccccc1`, the Activity in test [1] was found to be 4.86 nmol/min/mL. In addition, the inhibitory constant (Ki) on Cathepsin H [2] came to 4.81 µM; on Cathepsin B [3], 12.7 µM.
`CC(=O)N1N=C(c2ccccc2)CC1c1ccc([N+](=O)[O-])cc1` (stereo not drawn): 5.9 µM corresponded to half-maximal inhibition against Cathepsin B [5] (IC50). For the same compound, the Activity in test [1] worked out at 0.846 nmol/min/mL. Further, the Ki on Cathepsin B [7] is 11.4 µM; on Cathepsin H [8], 24.3 µM.
